The values that follow come from patent publication US20100317528A1, “HERBICIDE CONTAINING BENZOYLPYRAZOLE COMPOUND” (ISHIHARA SANGYO KAISHA, LTD., priority 2006, published 2010).

What all share (format): in vivo
Test [1] deals with wheat (Triticum spp.). Nature of the test: Test Example 1: foliar treatment, upland pot test, wheat. The settings on record: 31 g/ha active ingredient, observed 17th to 25th day after application; for inhibition at 31 g/ha: Triticum, read-out: Growth inhibition rate (%) Wheat. An excerpt:
(§1) Upland field soil was put into a 1/170,000 hectare pot, and seeds of various plants were sown. When the respective plants reached predetermined leaf stage ((1) barnyardgrass (Echinochloa crus-galli L.): 1.0 to 3.0 leaf stage, (2) crabgrass (Digitaria sanguinalis L.): 1.0 to 3.0 leaf stage, (3) green foxtail (Setaria viridis L.): 1.0 to 3.0 leaf stage, (4) redroot pigweed (Amaranthus retroflexus L.): cotyledon stage to 2.0 leaf stage, (5) prickly sida (Sida spinosa L.): cotyledon stage to 1.0 leaf stage, (6) velvetleaf (Abutilon theophrasti MEDIC.): 0.1 to 1.5 leaf stage, (7) rice (Oryza sativa L.): 1.0 to 3.0 leaf stage, (8) wheat (Triticum spp.): 1.7 to 3.4 leaf stage, (9) corn (Zea mays L.): 2.0 to 3.5 leaf stage, (10) soybean (Glycine max Merr.): primary leaf stage to 0.4 leaf stage), wettable powders or emulsifiable concentrates of the compounds of the above formula (I) prepared in accordance with a conventional preparation method, were weighed so that the active ingredients became the prescribed amounts, and diluted with water in an amount corresponding to 500 liter per 1 hectare (containing 0.1 vol % of “KUSARINOH”, manufactured by NIHON NOHYAKU CO., LTD. as an agricultural spreader). The spray solutions thus prepared were applied for foliar treatment by a small sprayer.
(§2) On the 17th to 25th day after application, the state of growth of the respective plants was visually observed, and the herbicidal effect was evaluated by a growth inhibition rate (%) of 0 (equivalent to the non-treated area) to 100% (complete kill).

The test system of test [2] is barnyardgrass (Echinochloa crus-galli L.). Nature of the test: Test Example 1: foliar treatment, upland pot test, barnyardgrass. As to conditions: 31 g/ha active ingredient, observed 17th to 25th day after application; for inhibition at 31 g/ha: Echinochloa crus-galli, read-out: Growth inhibition rate (%) Barnyardgrass.
Description: as §1, §2

Test [3] shares this test system. Nature of the test: Test Example 2: soil application on the day after sowing, barnyardgrass. As to conditions: 250 g/ha active ingredient, observed 19th to 28th day after application; for inhibition at 250 g/ha: Echinochloa crus-galli, read-out: Growth inhibition rate (%) Barnyardgrass. The text has this:
(§3) Upland field soil was put into a 1/170,000 hectare pot, and seeds of various plants barnyardgrass (Echinochloa crus-galli L.), crabgrass (Digitaria sanquinalis L.), green foxtail (Setaria viridis L.), redroot pigweed (Amaranthus retroflexus L.), prickly sida (Sida spinosa L.), velvetleaf (Abutilon theophrasti MEDIC.), rice (Oryza sativa L.), wheat (Triticum spp.), corn (Zea mays L.) and soybean (Glycine max Merr.)) were sown. On the day after sowing, wettable powders or emulsifiable concentrates of the compounds of the above formula (I) prepared in accordance with a conventional preparation method, were weighed so that the active ingredients became the prescribed amounts, and diluted with water in an amount corresponding to 500 liter per 1 hectare, followed by soil application with a small sprayer.
(§4) On the 19th to 28th day after the application, the state of growth of the respective plants was visually observed, and the herbicidal effect was evaluated by a growth inhibition rate (%) of from 0 (equivalent to the non-treated area) to 100% (complete kill).

Test [4] relates to velvetleaf (Abutilon theophrasti MEDIC.). Nature of the test: Test Example 1: foliar treatment, upland pot test, velvetleaf. The settings on record: 31 g/ha active ingredient, observed 17th to 25th day after application; for inhibition at 31 g/ha: Abutilon theophrasti, read-out: Growth inhibition rate (%) Velvetleaf.
Description: as §1, §2

Test [5] relates to crabgrass (Digitaria sanquinalis L.). Briefly: Test Example 2: soil application on the day after sowing, crabgrass. As to conditions: 250 g/ha active ingredient, observed 19th to 28th day after application; for inhibition at 250 g/ha: Digitaria, read-out: Growth inhibition rate (%) Crabgrass.
Description: as §3, §4

Test [6] relates to corn (Zea mays L.). Nature of the test: Test Example 2: soil application on the day after sowing, corn. As to conditions: 250 g/ha active ingredient, observed 19th to 28th day after application; for inhibition at 250 g/ha: Zea mays, read-out: Growth inhibition rate (%) Corn.
Description: as §3, §4

Test [7] concerns soybean (Glycine max Merr.). Nature of the test: Test Example 1: foliar treatment, upland pot test, soybean. The settings on record: 31 g/ha active ingredient, observed 17th to 25th day after application; for inhibition at 31 g/ha: Glycine max, read-out: Growth inhibition rate (%) Soybean.
Description: as §1, §2

The subject of test [8] is crabgrass (Digitaria sanguinalis L.). Briefly: Test Example 1: foliar treatment, upland pot test, crabgrass. The settings on record: 31 g/ha active ingredient, observed 17th to 25th day after application; for inhibition at 31 g/ha: Digitaria sanguinalis, read-out: Growth inhibition rate (%) Crabgrass.
Description: as §1, §2

The subject of test [9] is rice (Oryza sativa L.). Nature of the test: Test Example 1: foliar treatment, upland pot test, rice. The settings on record: 31 g/ha active ingredient, observed 17th to 25th day after application; for inhibition at 31 g/ha: Oryza sativa, read-out: Growth inhibition rate (%) Rice.
Description: as §1, §2

Test [10] deals with green foxtail (Setaria viridis L.). Briefly: Test Example 2: soil application on the day after sowing, green foxtail. The settings on record: 250 g/ha active ingredient, observed 19th to 28th day after application; for inhibition at 250 g/ha: Setaria viridis, read-out: Growth inhibition rate (%) Green foxtail.
Description: as §3, §4

For test [11] the test system is unchanged. Nature of the test: Test Example 1: foliar treatment, upland pot test, green foxtail. As to conditions: 31 g/ha active ingredient, observed 17th to 25th day after application; for inhibition at 31 g/ha: Setaria viridis, read-out: Growth inhibition rate (%) Green foxtail.
Description: as §1, §2

Test [12] deals with prickly sida (Sida spinosa L.). Nature of the test: Test Example 2: soil application on the day after sowing, prickly sida. The settings on record: 250 g/ha active ingredient, observed 19th to 28th day after application; for inhibition at 250 g/ha: Sida spinosa, read-out: Growth inhibition rate (%) Prickly sida.
Description: as §3, §4

For test [13], the system named is corn (Zea mays L.). Nature of the test: Test Example 1: foliar treatment, upland pot test, corn. The settings on record: 31 g/ha active ingredient, observed 17th to 25th day after application; for inhibition at 31 g/ha: Zea mays, read-out: Growth inhibition rate (%) Corn.
Description: as §1, §2

The subject of test [14] is velvetleaf (Abutilon theophrasti MEDIC.). Briefly: Test Example 2: soil application on the day after sowing, velvetleaf. The settings on record: 250 g/ha active ingredient, observed 19th to 28th day after application; for inhibition at 250 g/ha: Abutilon theophrasti, read-out: Growth inhibition rate (%) Velvetleaf.
Description: as §3, §4

Test [15] concerns wheat (Triticum spp.). Nature of the test: Test Example 2: soil application on the day after sowing, wheat. The settings on record: 250 g/ha active ingredient, observed 19th to 28th day after application; for inhibition at 250 g/ha: Triticum, read-out: Growth inhibition rate (%) Wheat.
Description: as §3, §4

Test [16] concerns redroot pigweed (Amaranthus retroflexus L.). Briefly: Test Example 1: foliar treatment, upland pot test, redroot pigweed. The settings on record: 31 g/ha active ingredient, observed 17th to 25th day after application; for inhibition at 31 g/ha: Amaranthus retroflexus, read-out: Growth inhibition rate (%) Redroot pigweed.
Description: as §1, §2

For test [17], the system named is rice (Oryza sativa L.). Nature of the test: Test Example 2: soil application on the day after sowing, rice. As to conditions: 250 g/ha active ingredient, observed 19th to 28th day after application; for inhibition at 250 g/ha: Oryza sativa, read-out: Growth inhibition rate (%) Rice.
Description: as §3, §4

Test [18] has as its system prickly sida (Sida spinosa L.). Briefly: Test Example 1: foliar treatment, upland pot test, prickly sida. As to conditions: 31 g/ha active ingredient, observed 17th to 25th day after application; for inhibition at 31 g/ha: Sida spinosa, read-out: Growth inhibition rate (%) Prickly sida.
Description: as §1, §2

The subject of test [19] is soybean (Glycine max Merr.). Nature of the test: Test Example 2: soil application on the day after sowing, soybean. As to conditions: 250 g/ha active ingredient, observed 19th to 28th day after application; for inhibition at 250 g/ha: Glycine max, read-out: Growth inhibition rate (%) Soybean.
Description: as §3, §4

The subject of test [20] is redroot pigweed (Amaranthus retroflexus L.). Briefly: Test Example 2: soil application on the day after sowing, redroot pigweed. The settings on record: 250 g/ha active ingredient, observed 19th to 28th day after application; for inhibition at 250 g/ha: Amaranthus retroflexus, read-out: Growth inhibition rate (%) Redroot pigweed.
Description: as §3, §4

Molecules are shown by their SMILES.

Broadly, the inhibition is the percentage by which the read-out fell short of the control. As for `COC(COc1c(S(C)(=O)=O)ccc(C(=O)c2cnn(C)c2O)c1C)OC` [Compound No. 1, 5-hydroxy-1-methylpyrazol-4-yl 3-(2,2-dimethoxyethoxy)-2-methyl-4-(methylsulfonyl)phenyl ketone], the inhibition at 31 g/ha came out at 30% in the test with wheat (Triticum spp.) [1]; 98% in test [2]; 100% in test [4]; 98% in test [7]; 90% in test [8]; 80% in the test with rice (Oryza sativa L.) [9]. Moreover, the inhibition at 31 g/ha amounted to 98% in test [11], 10% in the test on corn (Zea mays L.) [13], 98% in test [16] and 80% in test [18]. Also, the inhibition at 250 g/ha in test [3] amounted to 100%; in test [5], 90%; in the test on corn (Zea mays L.) [6] it was 0%; in test [10], 100%; in test [12], 30%; in [14] it was 95%. The inhibition at 250 g/ha in the test on wheat (Triticum spp.) [15] came to 40%; in the test on rice (Oryza sativa L.) [17], 90%; in test [19], 40%; in [20], 100%.

Take `COc1c(S(C)(=O)=O)ccc(C(=O)c2cnn(C)c2O)c1C` [compound 143]: the inhibition at 31 g/ha in the test with wheat (Triticum spp.) [1] came out at 10%; in [2], 10%; in test [4], 98%; in [7], 60%; in test [8] it was 70%; in the test with rice (Oryza sativa L.) [9], 40%. The inhibition at 31 g/ha in test [11] amounted to 70%; with corn (Zea mays L.) [13], 0%; in [16], 80%; in [18], 70%. Further, the inhibition at 250 g/ha in [3] came to 100%; in test [5], 100%; in the test on corn (Zea mays L.) [6], 20%; in [10], 100%; in test [12], 90%; in test [14] it was 100%. Moreover, the inhibition at 250 g/ha turned out to be 70% in the test with wheat (Triticum spp.) [15], 100% in the test with rice (Oryza sativa L.) [17], 80% in test [19] and 100% in test [20].

Consider `Cc1c(C(=O)c2cnn(C)c2O)ccc(S(C)(=O)=O)c1OC(C)C` [compound 145], for which the “Growth inhibition rate (%) Wheat” value in the test on wheat (Triticum spp.) [1] and with wheat (Triticum spp.) [15] was 0% in each case. Besides, the “Growth inhibition rate (%) Barnyardgrass” value in test [2] came to 70%; in test [3], 60%. Also, the entries for the “Growth inhibition rate (%) Velvetleaf” value in test [4] and in [14] were 85% and 40%, respectively. The “Growth inhibition rate (%) Crabgrass” value in test [5] is 90%; in test [8] it was 60%. In addition, the “Growth inhibition rate (%) Corn” value in the test with corn (Zea mays L.) [6] and in the test on corn (Zea mays L.) [13] was 0% in each case. The “Growth inhibition rate (%) Soybean” value in test [7] was 70%; in [19], 0%. For the same compound, the “Growth inhibition rate (%) Rice” value with rice (Oryza sativa L.) [9] came to 60%; with rice (Oryza sativa L.) [17] it was 0%. Further, the “Growth inhibition rate (%) Green foxtail” value in [10] is 30%; in test [11], 75%. For the same compound, the “Growth inhibition rate (%) Prickly sida” value in [12] turned out to be 60%. The “Growth inhibition rate (%) Redroot pigweed” value in test [16] worked out at 90%; in test [20], 60%.

Consider `COC(=O)Cc1c(S(C)(=O)=O)ccc(C(=O)c2cnn(C)c2O)c1C` [compound 156], for which the “Growth inhibition rate (%) Wheat” value in the test with wheat (Triticum spp.) [1] and in the test on wheat (Triticum spp.) [15] was 0% in each case. Further, the “Growth inhibition rate (%) Barnyardgrass” value in test [2] amounted to 75%; in test [3], 60%. Besides, the “Growth inhibition rate (%) Velvetleaf” value in test [4] and in test [14] was 80% each time. For the same compound, the “Growth inhibition rate (%) Crabgrass” value in test [5] turned out to be 95%; in test [8], 90%. The “Growth inhibition rate (%) Corn” value with corn (Zea mays L.) [6] and in the test with corn (Zea mays L.) [13] was 0% each time. The “Growth inhibition rate (%) Rice” value in the test on rice (Oryza sativa L.) [9] came to 70%; with rice (Oryza sativa L.) [17] it was 60%. Also, the “Growth inhibition rate (%) Green foxtail” value worked out at 50% in test [10] and 70% in test [11]. The entries for the “Growth inhibition rate (%) Prickly sida” value in test [12] and in test [18] were 80% and 60%, respectively. For the same compound, the “Growth inhibition rate (%) Redroot pigweed” value in test [16] is given as 70%; in test [20], 100%. The “Growth inhibition rate (%) Soybean” value in [19] turned out to be 0%.
